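1) Cells in 96-well plates. 2) Compound, 48 h, 5 concentrations. 3) Linear interpolation between surrounding doses. 4) Unreached endpoint = highest concentration. GI50 = concentration required for 50% inhibition of growth. At the TGI there is no net growth.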
Experiments:
Experiment in all cases: NCI anticancer screen, dose series, 48 h
KM12 colon = tested on: KM12 colon
MDA-MB-435 = tested on: MDA-MB-435
NCI-H460 lung = tested on: NCI-H460 lung
OVCAR-4 ovarian = tested on: OVCAR-4 ovarian
SF-268 CNS = tested on: SF-268 CNS
SK-MEL-2 melanoma = tested on: SK-MEL-2 melanoma
SK-MEL-5 melanoma = tested on: SK-MEL-5 melanoma
SW-620 colon = tested on: SW-620 colon
UO-31 renal = tested on: UO-31 renal
RPMI-8226 leukemia = tested on: RPMI-8226 leukemia

Compound | GI50 (KM12 colon) | TGI (KM12 colon) | GI50 (MDA-MB-435) | TGI (MDA-MB-435) | GI50 (NCI-H460 lung) | TGI (NCI-H460 lung) | GI50 (OVCAR-4 ovarian) | TGI (OVCAR-4 ovarian) | GI50 (SF-268 CNS) | TGI (SF-268 CNS) | GI50 (SK-MEL-2 melanoma) | TGI (SK-MEL-2 melanoma) | GI50 (SK-MEL-5 melanoma) | TGI (SK-MEL-5 melanoma) | GI50 (SW-620 colon) | TGI (SW-620 colon) | GI50 (UO-31 renal) | TGI (UO-31 renal) | GI50 (RPMI-8226 leukemia) | TGI (RPMI-8226 leukemia)
C[C@]12CCC(=O)C=C1CC[C@@H]1[C@@H]2CC[C@]2(C)C(=O)/C(=C/c3cccc(OCCN4CCOCC4)c3)C[C@@H]12 | 9.02 µM | > 100 µM | 4.92 µM | 21.8 µM | 7.11 µM | 30.1 µM | 3.01 µM | > 100 µM | 13.6 µM | 76.6 µM | 16.1 µM | 34.4 µM | 4170 nM | 15.7 µM | 8.45 µM | 27.7 µM | 12.1 µM | 30 µM |  | 
Cc1ccc(S(=O)(=O)n2cc(C(=O)C(=O)Nc3ccncc3)c3ccccc32)cc1 | 0.595 µM | > 84.6 µM |  |  | 7.05 µM | 96.8 µM | 4.22 µM | > 100 µM | 2 µM | > 100 µM | 5.76 µM | > 71.4 µM | 785 nM | 21.3 µM | 1.23 µM | > 100 µM | 5.45 µM | > 100 µM | 1450 nM | > 100 µM
COc1ccc2c(c1)[n+]([O-])c(-c1nc3ccccc3s1)c(N)[n+]2[O-] |  | > 100 µM |  |  |  | > 100 µM |  | > 100 µM |  |  |  | > 100 µM |  | > 100 µM |  | > 100 µM |  | > 100 µM |  | > 100 µM
COC(=O)C1=CC2OC1(C)C1(CC1)C2=O (stereo not drawn) |  | 43.9 µM |  |  |  | 48.4 µM |  | 24 µM |  | 43.3 µM |  |  |  |  |  | 34 µM |  | 50 µM |  | 30.3 µM
COc1ccc(OC)c2cc(C3(C)SCCCS3)ccc12 |  | > 100 µM |  |  |  | > 100 µM |  | > 100 µM |  | > 100 µM |  | > 100 µM |  | > 100 µM |  | > 100 µM |  | > 100 µM |  | > 100 µM
O=C(CC(=O)C(F)(F)F)c1csc2ccccc12 |  | > 100 µM |  |  |  | > 100 µM |  |  |  | > 100 µM |  | 53.7 µM |  | > 100 µM |  | > 100 µM |  | > 100 µM |  | 91.6 µM
CC12CC3CC(C)(C1)CC(N=[N+]=[N-])(C3)C2 |  | > 100 µM |  |  |  | > 100 µM |  | > 100 µM |  | > 100 µM |  | > 100 µM |  | > 100 µM |  | > 100 µM |  | > 100 µM |  | > 100 µM
COC(=O)C1=CC2OC13CC1CCC3(C2=O)C1(C)C (stereo not drawn) |  | 30.6 µM |  |  |  | > 100 µM |  | 23.3 µM |  | 23.2 µM |  | 28.7 µM |  | 30.7 µM |  | 19.4 µM |  | 19.1 µM |  | 38.6 µM
Cc1ccc(C2=NO[C@@H]3C(=O)N(c4ccc(Cc5ccc(N6C(=O)[C@H]7C(c8ccc(C)cc8)=NO[C@H]7C6=O)cc5)cc4)C(=O)[C@H]23)cc1 |  | > 100 µM |  |  |  | > 100 µM |  | > 100 µM |  | > 100 µM |  | > 100 µM |  | > 100 µM |  | > 100 µM |  | > 100 µM |  | > 100 µM
CN=S(=O)(C[C@]1(O)CC2OC1C1OC(C)(C)OC21)c1ccccc1 (stereo partly drawn) |  | > 100 µM |  |  |  | > 100 µM |  | > 100 µM |  | > 100 µM |  | > 100 µM |  | > 100 µM |  | > 100 µM |  |  |  | > 100 µM

From PubChem BioAssay (NCI)
